Where a name gives a salt, the structure may show the parent alone.
What was measured:
[1] = target: T1, Human P2X2 receptor (P2X2R) (Homo sapiens, UniProt Q9UBL9); assay: Yo-Pro-1 uptake assay, P2X2R transfected HEK-293 cells; type: cell-based; details: HEK293, compound at 5 μM, 5 μM ATP stimulus, read-out: Percentage of activity remains in the presence of the compound at 5 μM, P2X2R (Yo-Pro-1 Assay)
T1 construct: expressed in transfected cells; host or cells: HEK-293
T1 sequence (Q9UBL9 1-471): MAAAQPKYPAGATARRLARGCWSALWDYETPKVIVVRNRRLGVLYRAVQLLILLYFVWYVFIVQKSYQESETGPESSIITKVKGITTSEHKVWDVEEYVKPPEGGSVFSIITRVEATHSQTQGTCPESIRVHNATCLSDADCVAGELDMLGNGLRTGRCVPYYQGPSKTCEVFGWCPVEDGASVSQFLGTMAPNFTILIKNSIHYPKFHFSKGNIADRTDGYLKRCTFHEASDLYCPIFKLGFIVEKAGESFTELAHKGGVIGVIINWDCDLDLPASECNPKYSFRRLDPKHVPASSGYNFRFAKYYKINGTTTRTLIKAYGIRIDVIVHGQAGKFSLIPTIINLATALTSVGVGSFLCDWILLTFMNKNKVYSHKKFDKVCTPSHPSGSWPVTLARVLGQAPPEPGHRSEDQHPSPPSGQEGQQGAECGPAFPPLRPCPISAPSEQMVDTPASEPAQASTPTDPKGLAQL
From the text: (§1) Yo-Pro-1 Iodide (Cat. No Y3603 from Fisher Scientific) is a fluorescent DNA-binding dye with a MW of 629 Da. This method is based upon the Yo-Pro-1 entrance to cells through the dilated or “large pore form” of P2X7R and its binding to intracellular DNA whereby it increases its fluorescence intensity (J. Pharmacol. Exp. Ther. 308, 1053-1061). The dye has an absorption spectrum compatible with excitation at 488 nm by argon laser sources and its emission wavelength is in the range of 515-575 nm. This Yo-Pro-1 uptake was measured in HEK-293 cells transiently transfected with P2X7R (J. Biol. Chem. 290, 7930-7942). In Brief, HEK-293 cells were seeded in growth medium at approximately 20,000 cells/well in a 96-well plate on day 1. Transfection was performed on day 2 using Lipofectamine 2000 with the P2X7R DNA plasmid at the concentration of 1.7 μg/ml. The transfection solution was replaced with the growth medium 4 hours later. Fluorescent assays were conducted on day 4. On day 4, the medium was removed, the cells were washed with phosphate buffered saline (PBS) (Cat. No. MT21040CV from Fisher Scientific). Then, 25 μl of PBS were first loaded to each well followed by 25 μl of various test compounds. The third 25 μl of solution contained a mixture of Yo-Pro-1 and stimulus bzATP (2′(3′)-O-(4-Benzoylbenzoyl)adenosine-5′-triphosphate tri(triethylammonium) salt). The final concentration of Yo-Pro-1 was 2.5 μM and of bzATP 30 μM. Fluorescence increases were measured every 30 minutes in a microplate device with excitation at 475 nm and emission wavelength in the range of 500-550 nm. PPADS (Pyridoxalphosphate-6-azophenyl-2′,4′-disulfonic acid tetrasodium) was used as the positive control. The wells with no test compounds added nor bzATP and only containing PBS and Yo-Pro-1 were served as the negative control (N Contl). The positive control (P Contl) wells were the same as N Contl but contained the stimulus, bzATP in this case.
(§2) Data used for analysis were from microplate readings 1 hour after bzATP stimulation. The result of each well was first normalized by its corresponding base microplate reading. The base microplate reading was the first reading right after all components were added. Then, the negative control signal was subtracted from. In the negative control, the test compound and the stimulus were replaced by PBS. An average of six highest values of the plate (AVG) were considered as 100% and the value of each well was divided by AVG and presented as the relative values in percentages.
Human P2X2 receptor (P2X2R) construct (J. Biol. Chem. 290, 7930-7942) was transiently transfected to HEK-293 cells and the Yo-Pro-1 assay was performed as described above. When 5 μM ATP was used as the stimulus, the elevation of receptor mediated activity can be seen in 10 minutes.

[2] = target: T2, P2X7R (Homo sapiens, UniProt Q99572); assay: Yo-Pro-1 uptake assay (Yo-Pro-1 Assay) in HEK-293 cells transiently transfected with P2X7R; type: cell-based; details: for remaining activity at 5 µM: HEK293, compound at 5 μM, 30 μM bzATP stimulus, reading 1 hour after stimulation, transfected HEK-293 cells, read-out: Percentage of activity remains in the presence of the compound at 5 μM, P2X7R (Yo-Pro-1 Assay); for IC50: HEK-293 cells transiently transfected with P2X7R, 30 μM bzATP as stimulus, readings 1 hour after stimulation, estimated from dose-response curves
T2 construct: expressed in transfected cells; host or cells: HEK-293
T2 sequence (Q99572 1-595): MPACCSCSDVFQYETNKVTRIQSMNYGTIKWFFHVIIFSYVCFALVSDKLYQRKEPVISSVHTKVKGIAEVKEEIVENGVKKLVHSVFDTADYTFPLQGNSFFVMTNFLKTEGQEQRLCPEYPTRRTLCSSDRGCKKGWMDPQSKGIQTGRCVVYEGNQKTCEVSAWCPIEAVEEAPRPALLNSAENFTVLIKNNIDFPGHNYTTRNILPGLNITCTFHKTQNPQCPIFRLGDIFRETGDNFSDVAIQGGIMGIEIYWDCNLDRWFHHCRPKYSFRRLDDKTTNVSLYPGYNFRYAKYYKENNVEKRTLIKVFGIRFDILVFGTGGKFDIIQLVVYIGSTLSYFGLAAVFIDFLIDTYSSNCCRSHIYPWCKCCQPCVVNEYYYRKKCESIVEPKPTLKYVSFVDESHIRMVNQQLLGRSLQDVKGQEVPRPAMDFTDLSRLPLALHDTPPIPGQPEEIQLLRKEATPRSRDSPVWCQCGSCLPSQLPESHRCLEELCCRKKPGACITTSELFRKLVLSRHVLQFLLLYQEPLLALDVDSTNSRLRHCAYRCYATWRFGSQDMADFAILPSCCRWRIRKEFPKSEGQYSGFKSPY
From the text: as §1, §2
For comparison of the antagonistic effectiveness of the compounds of this invention among P2X receptors, assays were conducted at 5 μM. Among 55 compounds tested, 29 can reduce the P2X7R activity to […] of the normal activity (Table 2).

Structure (SMILES)	remaining activity at 5 µM [1] [%]	remaining activity at 5 µM [2] [%]	IC50 [2] [µM]
CS(=O)(=O)c1ccc(N2CCCC(NC(=O)CCc3ccccc3)C2)cc1 (stereo not drawn) [#1]	44	20	3.9
COc1ccc(S(=O)(=O)N2CCCC(NC(=O)CCc3ccccc3)C2)cc1 (stereo not drawn) [#2]	54.6	15.8	2.8
O=C(CCc1ccccc1)NC1CCCN(S(=O)(=O)c2ccc(F)cc2)C1 (stereo not drawn) [#3]	57	13.5	3.2
O=C(CCc1ccccc1)NC1CCCN(S(=O)(=O)c2ccc(OCc3ccccc3)cc2)C1 (stereo not drawn) [#4]	64.9	38.4	8.2
O=C(CCc1ccccc1)NC1CCCN(S(=O)(=O)c2ccc(N3CCCCC3)cc2)C1 (stereo not drawn) [#5]	55.5	-7.3	0.2
CC(C)COc1ccc(S(=O)(=O)N2CCCC(NC(=O)CCc3ccccc3)C2)cc1 (stereo not drawn) [#6]	54.3	10.7	2.7
CC(C)S(=O)(=O)c1ccc(N2CCCC(NC(=O)CCc3ccccc3)C2)cc1 (stereo not drawn) [#7]	77.6	14.1	6
O=C(CCc1ccccc1)NC1CCCN(S(=O)(=O)Cc2ccc(Br)cc2)C1 (stereo not drawn) [#8]	63.8	-14.5	2.1
O=C(CCc1ccccc1)NC1CCCN(S(=O)(=O)c2ccc(-n3cc(Br)cn3)cc2)C1 (stereo not drawn) [#9]	76.9	10.2	16
O=S(=O)(c1ccccc1)C1CN(S(=O)(=O)c2ccc(N3CCCCC3)cc2)C1 [#10]	38.2	70.1	5.9
O=S(=O)(c1ccccc1)C1CN(S(=O)(=O)c2ccc(N3CCOCC3)cc2)C1 [#11]	44	80.9	9.9
O=C(CCc1ccccc1)NC1CCCN(S(=O)(=O)c2ccc(N3CCOCC3)cc2)C1 (stereo not drawn) [#12]	41.8	44.3	6.7
O=C(CCc1ccccc1)NC1CCCN(S(=O)(=O)c2ccc(N3CCCC3)cc2)C1 (stereo not drawn) [#13]	48.9	0.8	1.6
CN(C)c1ccc(S(=O)(=O)N2CCCC(NC(=O)CCc3ccccc3)C2)cc1 (stereo not drawn) [#14]	54.3	-6.1	1.4
CCCCNc1ccc(S(=O)(=O)N2CCCC(NC(=O)CCc3ccccc3)C2)cc1 (stereo not drawn) [#15]	85	-12.2	1
O=C1CCC(N2Cc3c(NC(=O)CCc4ccccc4)cccc3C2=O)C(=O)N1 (stereo not drawn) [#16]	83.8	26	3.6
COCCOc1ccc(S(=O)(=O)N2CCCC(NC(=O)CCc3ccccc3)C2)cc1 (stereo not drawn) [#17]	91.6	53.4	16.1

Structure (SMILES)	remaining activity at 5 µM [1] [%]	remaining activity at 5 µM [2] [%]	IC50 [2] [µM]
CN1CCN(c2ccc(S(=O)(=O)N3CCCC(NC(=O)CCc4ccccc4)C3)cc2)CC1 (stereo not drawn) [#18]	52.7	41.5	31.2
O=C(NCCc1ccccc1)C1CCN(S(=O)(=O)c2ccc(N3CCCCC3)cc2)CC1 [#20]	61.5	7	1
O=C(NCCc1ccccc1)C1CCN(S(=O)(=O)c2ccc(N3CCCC3)cc2)CC1 [#21]	50.8	36.2	0.9
CC(C)(C)OC(=O)N1CCN(c2ccc(S(=O)(=O)N3CCC(C(=O)NCCc4ccccc4)CC3)cc2)CC1 [#22]	72	43	12.6
O=C(NCCc1ccccc1)C1CCN(S(=O)(=O)c2ccc(N3CCOCC3)cc2)CC1 [#23]	77.1	35.8	26.6
O=C(NCCc1ccccc1)C1CCCN(S(=O)(=O)c2ccc(N3CCOCC3)cc2)C1 (stereo not drawn) [#24]	70.9	32.6	10.2
O=C(NCCc1ccccc1)C1CCCN(S(=O)(=O)c2ccc(N3CCCC3)cc2)C1 (stereo not drawn) [#25]	79.3	36.8	5.1
CCCCNc1ccc(S(=O)(=O)N2CCC(C(=O)O)CC2)cc1 [#27]	55.4	59	9.3
NC(=O)c1cc(Br)cc(N2CCOCC2)c1 [#28]	77.3	75.2	29
O=C(CCc1ccccc1)N1CCNCC1 [#29, hydrochloride]	89.4	88.1	10.1
O=C(CCc1ccccc1)N1CCN(S(=O)(=O)c2ccc(F)cc2)CC1 [#30]	74.9	52.2	1490
CC(C)(C)OC(=O)N1CCN(c2ccc(S(=O)(=O)N3CCN(C(=O)CCc4ccccc4)CC3)cc2)CC1 [#31]	64	12.9	3
O=C(CCc1ccccc1)N1CCN(S(=O)(=O)c2ccc(N3CCOCC3)cc2)CC1 [#32]	79.9	54.3	3.8
O=C(CCc1ccccc1)N1CCN(S(=O)(=O)c2ccc(NC3CCCCC3)cc2)CC1 [#33]	60.9	-8.5	0.4
O=C(CCc1ccccc1)N1CCN(S(=O)(=O)c2ccc(N3CCCCC3)cc2)CC1 [#34]	72.4	4.8	2.7
O=C(CCc1ccccc1)N1CCN(S(=O)(=O)c2ccc(N3CCCC3)cc2)CC1 [#35]	70.6	23.6	3.3
CC(C)(C)OC(=O)N1CCN(c2ccc(S(=O)(=O)N3CCCC(C(=O)NCCc4ccccc4)C3)cc2)CC1 (stereo not drawn) [#36]	61.8	47.3	11.5
